In paper PMC12040169 (PLOS Biology, 2025):

Assay: in vitro
Details: human, hela cells, % viability

Compared with CN1C[C@@H](NC(=O)Nc2cccc(C#N)c2)C[C@H]1c1nc(-c2ccncc2)no1 [CBK288856], CC(=O)c1cccc(NC(=O)Nc2ccc(S(=O)(=O)Nc3cc(C)on3)cc2)c1 [CBK299794] is lower in viability at 28.5 h, 10 µM: 112% for the first, 111% for the second.

First: O=C(O)COc1ccccc1/C=C/c1cc(C(F)(F)F)[nH]c(=O)n1 [CBK287017]
Second: COC(=O)c1ccccc1NC(=O)COc1ccc(Cl)c2cccnc12 [CBK266037]
The viability at 28.5 h, 10 µM of the first is lower: 103% for the first, 104% for the second.

First: S=c1[nH]nnn1-c1ccc(Cl)c(Cl)c1 [CBK016327]
Second: O=S(=O)(NCCc1ccncc1)c1ccc(Cl)c(Cl)c1 [CBK044438]
The viability at 28.5 h, 10 µM of the first is lower: 96.7% for the first, 97.9% for the second.

Going from CCN(Cc1ccccc1)C(=O)NCCc1c[nH]cn1 [CBK155220] to CC(=O)Nc1nnc(SCCc2ccccc2)[nH]1 [CBK262514], the viability at 28.5 h, 10 µM rises from 92.8% to 95.6%.

First: O=C(CN1C(=O)c2ccccc2S1(=O)=O)Nc1ccccc1C(=O)N1CCOCC1 [CBK266975]
Second: NC(=O)c1ccccc1NC(=O)CCCN1C(=O)CCC1=O [CBK267680]
The viability at 28.5 h, 10 µM of the first is lower: 93.3% for the first, 94.1% for the second.

Going from O=C(c1cc[nH]n1)N1CCC2(CC1)Nc1ccccc1-n1cccc12 [CBK283652] to Cc1cnc2c(C(=O)N3CC(C(=O)N4CCN(c5ccccc5)CC4)C3)cnn2c1 [CBK285641], the viability at 28.5 h, 10 µM falls from 96.1% to 92.4%.

First: COC(=O)c1ccc(NC(=O)N(Cc2cnn(C)c2)CC(C)C)cc1Cl [CBK304387]
Second: CCOc1ccc(NC(=O)N(Cc2cnn(C)c2)CC(C)C)cc1C#N [CBK307636]
The viability at 28.5 h, 10 µM of the first is higher: 93.1% for the first, 93% for the second.

First: COc1ccccc1-c1ccc(CN(C)Cc2ccccc2N2CCOCC2)cc1 [CBK286108]
Second: CN(Cc1ccccc1)C(=O)[C@@H]1Cc2[nH]cnc2CN1Cc1cc2ccccc2o1 [CBK288978]
The viability at 28.5 h, 10 µM of the first is lower: 90.6% for the first, 108% for the second.

First: CN(C)CCN(Cc1ccccn1)c1ncccn1 [CBK020142]
Second: COCc1cccc(-c2nccnc2OCc2ccccn2)c1 [CBK106953]
The viability at 28.5 h, 10 µM of the first is higher: 116% for the first, 96% for the second.

Compared with O=C(CC1CCS(=O)(=O)C1)NC1(c2ccc(Cl)cc2)CC1 (centres unmarked) [CBK282773], Cn1ncc(N2CCC(CNC(=O)c3ccccc3Cl)C2)cc1=O (centres unmarked) [CBK306747] is lower in viability at 28.5 h, 10 µM: 97.6% for the first, 95.2% for the second.

Going from COc1ccc(NCc2cc3sccc3n2C)cc1OC [CBK283486] to COc1ccc(-c2nc(-c3ccoc3)cnc2N)cc1OC [CBK063964], the viability at 28.5 h, 10 µM rises from 87% to 105%.

Going from CC(C)N1CCC(C(=O)NC(=O)Nc2ccc3c(c2)OCCO3)CC1 [CBK034799] to CC1(C)Cc2nc(N3CCOCC3)ncc2C(NC(=O)C2CCCC2)C1 (centres unmarked) [CBK307687], the viability at 28.5 h, 10 µM rises from 93.6% to 115%.

Going from CC(C)Cc1cnc2c(c1SCc1ccc(F)cc1)c(=O)n(C)c(=O)n2C [CBK294409] to Cc1cc(SCc2ccc(Cl)cc2)nc(=O)[nH]1 [CBK287719], the viability at 28.5 h, 10 µM falls from 95.6% to 90.8%.

Compared with C=CCN1C(=O)CC2(C1=O)C(=O)N(CCCn1c(=O)c3c(ncn3C)n(C)c1=O)c1ccc(OC)cc12 (centres unmarked) [CBK075701], Cc1cc(C)n(-c2nc3c(c(=O)[nH]c(=O)n3C)n2CCc2ccccc2)n1 [CBK087129] is lower in viability at 28.5 h, 10 µM: 93.6% for the first, 90.2% for the second.

First: CCCc1[nH]nc(O)c1CCc1cccc(OC)c1OC [CBK075078]
Second: CCCCc1ccc(-c2nc3ncccc3cc2O)cc1 [CBK073702]
The viability at 28.5 h, 10 µM of the first is higher: 97% for the first, 91.3% for the second.

Going from CNC(=O)c1ccc(-c2ccc(CNC(=O)C(C)Oc3ccc(C)c(C)c3)cc2)nc1C (centres unmarked) [CBK286014] to COc1ccc(-c2cc(C(=O)NCCc3ccncc3)cnc2-c2ccc(F)cc2)cc1 [CBK037434], the viability at 28.5 h, 10 µM falls from 104% to 91.5%.

First: Cc1noc(C)c1S(=O)(=O)NCc1cc(C)n(C)n1 [CBK062155]
Second: CC(C)c1nn(C)c(N(C)C)c1CNCc1cscn1 [CBK304321C]
The viability at 28.5 h, 10 µM of the first is higher: 103% for the first, 84.4% for the second.

Going from COc1cc(/C=N/NC(=O)c2ccncc2)ccc1OC(=O)c1cccs1 [CBK262278] to COc1cccc(NC(=O)CSc2nnc(-c3ccccc3O)n2-c2ccccc2)c1 [CBK268343], the viability at 28.5 h, 10 µM rises from 103% to 108%.

Compared with COc1cc2c(cc1OC)C1(CCN(C(=O)Nc3ccc(F)cc3F)CC1)NC(=O)C2 [CBK047264], O=c1c2ccccc2nc2n1CCN(Cc1cc(F)ccc1F)CC2 [CBK284818] is higher in viability at 28.5 h, 10 µM: 84.8% for the first, 99.1% for the second.

Compared with COC(=O)c1sc(N2CCOCC2)c(C#N)c1N [CBK006430], CC(=O)c1ccc(-c2cnc(Nc3ccc(N4CCOCC4)cc3)c3nccn23)s1 [CBK091231] is lower in viability at 28.5 h, 10 µM: 101% for the first, 95.3% for the second.

Compared with CN(CC(=O)C(C#N)c1ccccc1)Cc1ccccc1 (centres unmarked) [CBK269432], Nc1ccccc1NC(=O)NC(=O)c1ccccc1 [CBK022767] is lower in viability at 28.5 h, 10 µM: 96.8% for the first, 94% for the second.

Compared with O=C(c1ccccc1F)N1CCC(c2nnc3n2CCCCC3)CC1 [CBK284628], Nc1nc(N2CCCCC2)nc2ccccc12 [CBK012270] is higher in viability at 28.5 h, 10 µM: 82.2% for the first, 114% for the second.

Going from O=C(O)CCc1nc(-c2ccc3[nH]ccc3c2)no1 [CBK287070] to O=C(Cc1c[nH]cn1)Nc1cccc2cc[nH]c12 [CBK160097], the viability at 28.5 h, 10 µM falls from 99.3% to 86.2%.

Going from O=C(/C=C/c1ccc(F)cc1)NCCc1ccc(S(=O)(=O)N2CCCC2)cc1 [CBK265227] to Cc1ccc(C)c(C2CCCN2C(=O)c2ccc(=O)n(CC(=O)N(C)c3ccccc3)c2)c1 (centres unmarked) [CBK285654], the viability at 28.5 h, 10 µM rises from 81.8% to 97.5%.

Going from CC(=O)c1cccc(NC(=O)CCn2[nH]c(=O)ccc2=O)c1 [CBK306094] to O=C(Nc1cccc2ccccc12)/C(=C\c1ccco1)NC(=O)c1ccc(Br)cc1 [CBK264587], the viability at 28.5 h, 10 µM rises from 91.4% to 104%.

Compared with CN(C)Cc1cnn(-c2ccc(Oc3ccccc3)cc2)n1 [CBK112865], c1ccc2oc(-c3cncc(NCCc4c[nH]c5ccccc45)n3)cc2c1 [CBK066068] is lower in viability at 28.5 h, 10 µM: 100% for the first, 93.1% for the second.

Compared with C=CCO[C@@H]1C[C@H]2C(=O)N3CCN(C(=O)NC4CCCCC4)C[C@H]3C(=O)N2C1 [CBK289619], CCCCN(Cc1ccccc1)C(=O)[C@H]1CCCC[C@H]1C(=O)O [CBK286596] is higher in viability at 28.5 h, 10 µM: 82.5% for the first, 85.3% for the second.

Compared with N#Cc1cc2c([nH]c1=S)CCN(Cc1ccccc1)C2 [CBK288378], CC(=O)N1CCc2c([nH]c3ccccc23)C12CCCN(CCC#N)C2 (centres unmarked) [CBK039665] is higher in viability at 28.5 h, 10 µM: 90.3% for the first, 91.6% for the second.

Going from Cc1cc2nc(SCc3nc4ccccc4[nH]3)[nH]c2cc1C [CBK264233] to CC1(C)CC(=O)C2=C(C1)Nc1nc(SCc3ccc([N+](=O)[O-])cc3)[nH]c(=O)c1C2c1cccnc1 (centres unmarked) [CBK266096], the viability at 28.5 h, 10 µM rises from 97.4% to 108%.

Compared with Cc1cc(C(=O)NC2CCCOC2)c2cccc(Cl)c2n1 (centres unmarked) [CBK282459], Cc1nc(C(Cc2ccsc2)NC(=O)C2CCCNC2)sc1C (centres unmarked) [CBK282228] is lower in viability at 28.5 h, 10 µM: 95.3% for the first, 87.6% for the second.

Compared with c1cncc(CCOc2nccnc2N2CCNCC2)c1 [CBK014992], COc1ncc(-c2nccnc2N2CCCC2CO)c(OC)n1 (centres unmarked) [CBK036638] is lower in viability at 28.5 h, 10 µM: 101% for the first, 92.8% for the second.

First: CCOC(=O)CN1CCCN(c2nccc(OCC3COc4ccccc4O3)n2)CC1 (centres unmarked) [CBK083975]
Second: COc1ncccc1-c1csc(N2CCOC(C)C2)n1 (centres unmarked) [CBK304118]
The viability at 28.5 h, 10 µM of the first is higher: 100% for the first, 81.8% for the second.

Cc1cn(C2CC(O)C(CO)O2)c(=O)nc1SCCC#N (centres unmarked) [CBK201201] showed a viability at 28.5 h, 10 µM of 97.5%.
